# Data from PubChem BioAssay AID1845205 (Molecular Pharmacology Branch, DTP, NCI, 2023).
# System: MPNST multicellular tumor spheroids, viability % test/control
# Experiment: Anticancer human tumor MPNST cell line growth inhibition;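 note: spheroids exposed to agents for seven days after three days of growth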;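 for viability, T/C: luminescence signal used as surrogate for viable cell amount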
# Details: for IC50: curve of first compound; for viability, T/C: stronger effect = lower value
# Summary of the method: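 Single agents and combinations were tested on spheroids built from tumor cells plus HUVEC and hMSC, at half-log dilutions starting at or near clinical Cmax, else 10 microM; final DMSO 0.25% (v/v).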
# [1] = second compound 0.003 µM, first compound 0.0316 µM
# [2] = second compound 0.003 µM, first compound 0.1 µM
# [3] = second compound 0.003 µM, first compound 0.316 µM
# [4] = second compound 0.003 µM, first compound 1 µM
# [5] = second compound 0.003 µM, first compound 3.16 µM
# [6] = second compound 0.003 µM, first compound 10 µM
smiles,measurement,setting,value
[2H]c1nc(C)nc([2H])c1-c1cc(NC[C@@H](C)c2cccc3c(C(=O)NC)ccnc23)ncn1 + CC[C@@]1(O)C(=O)OCc2c1cc1n(c2=O)Cc2cc3c(CN(C)C)c(O)ccc3nc2-1,IC50,second compound 0.003 µM,> 10 µM
same,IC50,second compound 0.00949 µM,> 10 µM
same,IC50,second compound 0.03 µM,< 0.0316 µM
same,IC50,second compound 0.0949 µM,< 0.0316 µM
same,IC50,second compound 0.3 µM,< 0.0316 µM
same,"viability, T/C",[1],96.5%
same,"viability, T/C",[2],107%
same,"viability, T/C",[3],93.5%
same,"viability, T/C",[4],99.7%
same,"viability, T/C",[5],92.4%
same,"viability, T/C",[6],67.8%
same,"viability, T/C","second compound 0.00949 µM, first compound 0.0316 µM",74.5%
same,"viability, T/C","second compound 0.00949 µM, first compound 0.1 µM",58.1%
same,"viability, T/C","second compound 0.00949 µM, first compound 0.316 µM",77.8%
same,"viability, T/C","second compound 0.00949 µM, first compound 1 µM",74.2%
same,"viability, T/C","second compound 0.00949 µM, first compound 3.16 µM",49.4%
same,"viability, T/C","second compound 0.00949 µM, first compound 10 µM",59.9%
same,"viability, T/C","second compound 0.03 µM, first compound 0.0316 µM",39.3%
same,"viability, T/C","second compound 0.03 µM, first compound 0.1 µM",39.7%
same,"viability, T/C","second compound 0.03 µM, first compound 0.316 µM",37.6%
same,"viability, T/C","second compound 0.03 µM, first compound 1 µM",36.4%
same,"viability, T/C","second compound 0.03 µM, first compound 3.16 µM",37.8%
same,"viability, T/C","second compound 0.03 µM, first compound 10 µM",36.2%
same,"viability, T/C","second compound 0.0949 µM, first compound 0.0316 µM",38.5%
same,"viability, T/C","second compound 0.0949 µM, first compound 0.1 µM",37.5%
same,"viability, T/C","second compound 0.0949 µM, first compound 0.316 µM",39.4%
same,"viability, T/C","second compound 0.0949 µM, first compound 1 µM",35.4%
same,"viability, T/C","second compound 0.0949 µM, first compound 3.16 µM",34%
same,"viability, T/C","second compound 0.0949 µM, first compound 10 µM",35.1%
same,"viability, T/C","second compound 0.3 µM, first compound 0.0316 µM",33.1%
same,"viability, T/C","second compound 0.3 µM, first compound 0.1 µM",31%
same,"viability, T/C","second compound 0.3 µM, first compound 0.316 µM",29.9%
same,"viability, T/C","second compound 0.3 µM, first compound 1 µM",30.8%
same,"viability, T/C","second compound 0.3 µM, first compound 3.16 µM",28.1%
same,"viability, T/C","second compound 0.3 µM, first compound 10 µM",25.9%
O=C(c1cc(Cc2n[nH]c(=O)c3ccccc23)ccc1F)N1CCN(C(=O)C2CC2)CC1 + Cn1nnc2c(C(N)=O)ncn2c1=O,IC50,second compound 1 µM,17.7 µM
same,IC50,second compound 3.16 µM,22.9 µM
same,IC50,second compound 10 µM,26.4 µM
same,IC50,second compound 31.6 µM,16.4 µM
same,IC50,second compound 100 µM,2.85 µM
same,"viability, T/C","second compound 1 µM, first compound 0.0949 µM",70.9%
same,"viability, T/C","second compound 1 µM, first compound 0.3 µM",77.9%
same,"viability, T/C","second compound 1 µM, first compound 0.949 µM",82%
same,"viability, T/C","second compound 1 µM, first compound 3 µM",71.9%
same,"viability, T/C","second compound 1 µM, first compound 9.49 µM",56.1%
same,"viability, T/C","second compound 1 µM, first compound 30 µM",44.9%
same,"viability, T/C","second compound 3.16 µM, first compound 0.0949 µM",83.8%
same,"viability, T/C","second compound 3.16 µM, first compound 0.3 µM",80.2%
same,"viability, T/C","second compound 3.16 µM, first compound 0.949 µM",92.1%
same,"viability, T/C","second compound 3.16 µM, first compound 3 µM",77.2%
same,"viability, T/C","second compound 3.16 µM, first compound 9.49 µM",65.3%
same,"viability, T/C","second compound 3.16 µM, first compound 30 µM",45.4%
same,"viability, T/C","second compound 10 µM, first compound 0.0949 µM",118%
same,"viability, T/C","second compound 10 µM, first compound 0.3 µM",95.2%
same,"viability, T/C","second compound 10 µM, first compound 0.949 µM",87.6%
same,"viability, T/C","second compound 10 µM, first compound 3 µM",66.2%
same,"viability, T/C","second compound 10 µM, first compound 9.49 µM",60.9%
same,"viability, T/C","second compound 10 µM, first compound 30 µM",48.1%
same,"viability, T/C","second compound 31.6 µM, first compound 0.0949 µM",82.6%
same,"viability, T/C","second compound 31.6 µM, first compound 0.3 µM",107%
same,"viability, T/C","second compound 31.6 µM, first compound 0.949 µM",80.2%
same,"viability, T/C","second compound 31.6 µM, first compound 3 µM",70.3%
same,"viability, T/C","second compound 31.6 µM, first compound 9.49 µM",54.1%
same,"viability, T/C","second compound 31.6 µM, first compound 30 µM",45.8%
same,"viability, T/C","second compound 100 µM, first compound 0.0949 µM",83.4%
same,"viability, T/C","second compound 100 µM, first compound 0.3 µM",85.6%
same,"viability, T/C","second compound 100 µM, first compound 0.949 µM",72.6%
same,"viability, T/C","second compound 100 µM, first compound 3 µM",49.2%
same,"viability, T/C","second compound 100 µM, first compound 9.49 µM",46.1%
same,"viability, T/C","second compound 100 µM, first compound 30 µM",44.7%
CC(C)n1c(=O)n(C)c2cnc3cc(F)c(-c4ccc(OCCCN5CCCCC5)nc4)cc3c21 + COc1cc2c(cc1O)CCNC21CSC2c3c(OC(C)=O)c(C)c4c(c3C(COC1=O)N1C(O)C3Cc5cc(C)c(OC)c(O)c5C(C21)N3C)OCO4,IC50,second compound 30 pM,> 10 µM
same,IC50,second compound 94.9 pM,> 10 µM
same,IC50,second compound 0.0003 µM,> 10 µM
same,IC50,second compound 0.000949 µM,< 0.0316 µM
same,IC50,second compound 0.003 µM,< 0.0316 µM
same,"viability, T/C","second compound 30 pM, first compound 0.0316 µM",94.6%
same,"viability, T/C","second compound 30 pM, first compound 0.1 µM",76.6%
same,"viability, T/C","second compound 30 pM, first compound 0.316 µM",79.8%
same,"viability, T/C","second compound 30 pM, first compound 1 µM",135%
same,"viability, T/C","second compound 30 pM, first compound 3.16 µM",110%
same,"viability, T/C","second compound 30 pM, first compound 10 µM",72.2%
same,"viability, T/C","second compound 94.9 pM, first compound 0.0316 µM",72.3%
same,"viability, T/C","second compound 94.9 pM, first compound 0.1 µM",68.9%
same,"viability, T/C","second compound 94.9 pM, first compound 0.316 µM",79.3%
same,"viability, T/C","second compound 94.9 pM, first compound 1 µM",64.6%
same,"viability, T/C","second compound 94.9 pM, first compound 3.16 µM",63.5%
same,"viability, T/C","second compound 94.9 pM, first compound 10 µM",59.3%
same,"viability, T/C","second compound 0.0003 µM, first compound 0.0316 µM",55.8%
same,"viability, T/C","second compound 0.0003 µM, first compound 0.1 µM",47.3%
same,"viability, T/C","second compound 0.0003 µM, first compound 0.316 µM",61.1%
same,"viability, T/C","second compound 0.0003 µM, first compound 1 µM",67.5%
same,"viability, T/C","second compound 0.0003 µM, first compound 3.16 µM",52.5%
same,"viability, T/C","second compound 0.0003 µM, first compound 10 µM",40.8%
same,"viability, T/C","second compound 0.000949 µM, first compound 0.0316 µM",47.2%
same,"viability, T/C","second compound 0.000949 µM, first compound 0.1 µM",46.6%
same,"viability, T/C","second compound 0.000949 µM, first compound 0.316 µM",45.5%
same,"viability, T/C","second compound 0.000949 µM, first compound 1 µM",48.1%
same,"viability, T/C","second compound 0.000949 µM, first compound 3.16 µM",45.2%
same,"viability, T/C","second compound 0.000949 µM, first compound 10 µM",37.1%
same,"viability, T/C",[1],13.8%
same,"viability, T/C",[2],13.6%
same,"viability, T/C",[3],11.6%
same,"viability, T/C",[4],10.3%
same,"viability, T/C",[5],10%
same,"viability, T/C",[6],6.09%
